Tested on: C2C12 cells
Test: Mitochondrial uncoupling activity by oxygen consumption rate (OCR) assay, Seahorse, in presence of oligomycin
Assay type: cell-based, mouse
Details: Mus musculus, C2C12; in the presence of oligomycin 2.5 μM; read-out: COCR-min: minimal concentration increasing OCR in the presence of oligomycin
Description: By definition, mitochondrial uncoupling is the decoupling of mitochondrial electron transport chain activity (mitochondrial oxidation) from ATP synthesis by mitochondrial ATP synthase. Technically, mitochondrial uncoupling activity is defined by the ability of a chemical compound to induce oxygen consumption of cells or isolated mitochondria in the presence of a mitochondrial ATP synthase inhibitor such as oligomycin. Accordingly, mitochondrial uncoupling activity was determined by oxygen consumption rate assay with a Seahorse XF96 or a Seahorse XF24 instrument following the vendor's instruction, using mouse myoblast C2C12 cells grown in a medium containing 10% fetal bovine serum. OCR was measured stepwise under the following conditions: first under normal growth conditions; then. OCR was measured after oligomycin was added to reach a final concentration of 2.5 μM); then OCR was measured after the compound was further added at varying concentrations. Finally, rotenone and antimycin A were added to confirm that the measurement was mitochondrial oxygen consumption (rotenone and […] mitochondrial electron transport chain inhibitors).
COCR-min the minimal concentration required for each compound to induce OCR in the presence of oligomycin, of disclosed compounds, was also determined by varying the final concentration of the compound added to the Seahorse OCR analysis experiment as described above (FIG. 2, varying testing compound concentration). Table 8 summarizes the mitochondrial uncoupling activity of disclosed compounds, as represented by COCR-min.

Compound	minimal effective concentration [µM]
COc1ccc(COCc2cc(C(F)(F)F)cc3sc(NC(=O)c4cc(Cl)cc(C)c4O)nc23)cc1 [Compound 89, 5-chloro-2-hydroxy-N-(4-(((4-methoxybenzyl)oxy)methyl)-6-(trifluoromethyl)benzo[d]thiazol-2-yl)-3-methylbenzamide]	< 5
Cc1cc(Cl)cc(C(=O)Nc2nc3c(CN4CCOCC4)cc(C(F)(F)F)cc3s2)c1O [Example 95, 5-chloro-2-hydroxy-3-methyl-N-(4-(morpholinomethyl)-6-(trifluoro-methyl)benzo[d]thiazol-2-yl)benzamide]	< 5
N#CC1CCN(Cc2cc(Cl)cc(C(=O)Nc3ccc(C(F)(F)F)nc3)c2O)C1 (centres unmarked) [Compound 55, 5-chloro-3-((3-cyanopyrrolidin-1-yl)methyl)-2-hydroxy-N-(6-(trifluoromethyl)pyridin-3-yl)benzamide]	< 5
COCOCc1cc(Cl)cc(C(=O)Nc2nc3ccc(C(F)(F)F)cc3s2)c1O [Compound 1, 5-chloro-2-hydroxy-3-((methoxymethoxy)methyl)-N-(6-(trifluoromethyl)benzo[d]thiazol-2-yl)benzamide]	< 5
O=C(Nc1nc2ccc(C(F)(F)F)cc2s1)c1cc(Cl)cc(CN2CCC(F)(F)CC2)c1O [Example 62, 5-chloro-3-((4,4-difluoropiperidin-1-yl)methyl)-2-hydroxy-N-(6-(trifluoromethyl)benzo[d]thiazol-2-yl)benzamide]	< 5
O=C(Nc1ncc(C(F)(F)F)s1)c1cc(Cl)cc(CN2CCOCC2)c1O [Compound 51, 5-chloro-2-hydroxy-3-(morpholinomethyl)-N-(5-(trifluoromethyl)thiazol-2-yl)benzamide]	< 5
COCCOCc1cc(Cl)cc(C(=O)Nc2ccc(C(F)(F)F)cn2)c1O [Compound 45, 5-chloro-2-hydroxy-3-((2-methoxyethoxy)methyl)-N-(5-(trifluoromethyl)pyridin-2-yl)benzamide]	5 to 10
COCCOCc1cc(Cl)cc(C(=O)Nc2nc3ccc(F)cc3s2)c1O [Compound 8, 5-chloro-N-(6-fluorobenzo[d]thiazol-2-yl)-2-hydroxy-3-((2-methoxyethoxy)methyl)benzamide]	< 5
CN(C)CCc1cc(Cl)cc(C(=O)Nc2ccc(C(F)(F)F)cc2Cl)c1O [Compound 18, 5-chloro-N-(2-chloro-4-(trifluoromethyl)phenyl)-3-(2-(dimethylamino)ethyl)-2-hydroxybenzamide]	< 5
O=C(Nc1nc2ccc(C(F)(F)F)cc2s1)c1cc(Cl)cc(CN2CCC(F)CC2)c1O [Example 60, 5-chloro-3-((4-fluoropiperidin-1-yl)methyl)-2-hydroxy-N-(6-(trifluoromethyl)benzo[d]thiazol-2-yl)benzamide]	< 5
C[C@@H]1CN(Cc2cc(Cl)cc(C(=O)Nc3nc4c(CN5CCN(C)CC5)cc(C(F)(F)F)cc4s3)c2O)C[C@H](C)O1 [Example 79, 5-chloro-3-((cis-2,6-dimethylmorpholino)methyl)-2-hydroxy-N-(4-((4-methylpiperazin-1-yl)methyl)-6-(trifluoromethyl)benzo[d]thiazol-2-yl)benzamide]	< 5
C[C@@H]1CN(Cc2cc(Cl)cc(C(=O)Nc3nc4c(COCCN5CCN(C)CC5)cc(C(F)(F)F)cc4s3)c2O)C[C@H](C)O1 [Compound 76, 5-chloro-3-((cis-2,6-dimethylmorpholino)methyl)-2-hydroxy-N-(4-((2-(4-methylpiperazin-1-yl)ethoxy)methyl)-6-(trifluoromethyl)benzo[d]thiazol-2-yl)benzamide]	< 5
CN1CCN(Cc2cc(Cl)cc(C(=O)Nc3nc4ccc(C(F)(F)F)cc4s3)c2O)CC1 [Compound 28, 5-chloro-2-hydroxy-3-((4-methylpiperazin-1-yl)methyl)-N-(6-(trifluoromethyl)benzo[d]thiazol-2-yl)benzamide]	< 5
COCCOCc1cc(Cl)cc(C(=O)Nc2cnc(C(F)(F)F)nc2)c1O [Compound 21, 5-chloro-2-hydroxy-3-((2-methoxyethoxy)methyl)-N-(2-(trifluoromethyl)pyrimidin-5-yl)benzamide]	> 10
COCCN(CCOC)Cc1cc(Cl)cc(C(=O)Nc2nc3c(COCCNS(C)(=O)=O)cc(C(F)(F)F)cc3s2)c1O [Compound 93, 3-((bis(2-methoxyethyl)amino)methyl)-5-chloro-2-hydroxy-N-(4-((2-(methylsulfonamido)ethoxy)methyl)-6-(trifluoromethyl)benzo[d]thiazol-2-yl)benzamide]	< 5
CO/N=C/c1cc(Cl)cc(C(=O)Nc2nc3ccc(C(F)(F)F)cc3s2)c1O [Compound 39, (E)-5-chloro-2-hydroxy-3-((methoxyimino)methyl)-N-(6-(trifluoromethyl)benzo[d]thiazol-2-yl)benzamide]	> 10
Cc1cc(Cl)cc(C(=O)Nc2nc3c(COCc4ccccc4)cc(C(F)(F)F)cc3s2)c1O [Compound 84, N-(4-((benzyloxy)methyl)-6-(trifluoromethyl)benzo[d]thiazol-2-yl)-5-chloro-2-hydroxy-3-methylbenzamide]	< 5
CCC(=O)NCc1cc(C(F)(F)F)cc2sc(NC(=O)c3cc(Cl)cc(C)c3O)nc12 [Example 90, 5-chloro-2-hydroxy-3-methyl-N-(4-(propionamidomethyl)-6-(trifluoromethyl)benzo[d]thiazol-2-yl)benzamide]	5 to 10
O=C(Nc1nc2ccc(C(F)(F)F)cc2s1)c1cc(Cl)cc(CN2CCCC(F)C2)c1O (centres unmarked) [Example 58, 5-chloro-3-((3-fluoropiperidin-1-yl)methyl)-2-hydroxy-N-(6-(trifluoromethyl)benzo[d]thiazol-2-yl)benzamide]	< 5
C[C@@H]1CN(Cc2cc(Cl)cc(C(=O)Nc3nc4c(COCCNS(C)(=O)=O)cc(C(F)(F)F)cc4s3)c2O)C[C@H](C)O1 [Compound 92, 5-chloro-3-((cis-2,6-dimethylmorpholino)methyl)-2-hydroxy-N-(4-((2-(methylsulfonamido)ethoxy)methyl)-6-(trifluoromethyl)benzo[d]thiazol-2-yl)benzamide]	< 5
COc1cc(C(F)(F)F)cc2sc(NC(=O)c3cc(Cl)cc(C)c3O)nc12 [Compound 67, 5-chloro-2-hydroxy-N-(4-methoxy-6-(trifluoromethyl)benzo[d]thiazol-2-yl)-3-methylbenzamide]	< 5
Cc1cc(Cl)cc(C(=O)Nc2nc3c(COCCN4CCN(C)CC4)cc(C(F)(F)F)cc3s2)c1O [Compound 75, 5-chloro-2-hydroxy-3-methyl-N-(4-((2-(4-methylpiperazin-1-yl)ethoxy)methyl)-6-(trifluoromethyl)benzo[d]thiazol-2-yl)benzamide]	< 5
COCCOCc1cc(Cl)cc(C(=O)Nc2nc3ccc(C(F)F)cc3s2)c1O [Compound 42, 5-chloro-N-(6-(difluoromethyl)benzo[d]thiazol-2-yl)-2-hydroxy-3-((2-methoxyethoxy)methyl)benzamide]	5 to 10
COCCOCc1cc(Cl)cc(C(=O)Nc2ccc(C(F)(F)F)nc2)c1O [Compound 20, 5-chloro-2-hydroxy-3-((2-methoxyethoxy)methyl)-N-(6-(trifluoromethyl)pyridin-3-yl)benzamide]	5 to 10
Cc1cc(Cl)cc(C(=O)Nc2nc3c(CN(C)C)cc(C(F)(F)F)cc3s2)c1O [Example 96, 5-chloro-N-(4-((dimethylamino)methyl)-6-(trifluoromethyl)benzo[d]thiazol-2-yl)-2-hydroxy-3-methylbenzamide]	< 5
COCCOCc1cc(Cl)cc(C(=O)Nc2cnc(C(F)(F)F)cn2)c1O [Compound 6, 5-chloro-2-hydroxy-3-((2-methoxyethoxy)methyl)-N-(5-(trifluoromethyl)pyrazin-2-yl)benzamide]	5 to 10
CC(=O)NC1CCN(Cc2cc(Cl)cc(C(=O)Nc3nc4ccc(C(F)(F)F)cc4s3)c2O)C1 (centres unmarked) [Compound 33, 3-((3-acetamidopyrrolidin-1-yl)methyl)-5-chloro-2-hydroxy-N-(6-(trifluoromethyl)benzo[d]thiazol-2-yl)benzamide]	> 10
COCCOCCN(C)Cc1cc(Cl)cc(C(=O)Nc2nc3ccc(C(F)(F)F)cc3s2)c1O [Compound 24, 5-chloro-2-hydroxy-3-(((2-(2-methoxyethoxy)ethyl)(methyl)amino)methyl)-N-(6-(trifluoromethyl)benzo[d]thiazol-2-yl)benzamide]	< 5

Same assay, conditions: Mus musculus, C2C12; minimal concentration leading to OCR increase; read-out: Activity (Cmin-OCR)

Compound	minimal effective concentration [µM]
O=C(Nc1nc2ccc(C(F)(F)F)cc2s1)c1cc(Cl)cc(CO)c1O [Compound 49 in U.S. Pat. No. 10,227,315, reference compound]	25
COCOCc1cc(Cl)cc(C(=O)Nc2nc3ccc(C(F)(F)F)cc3s2)c1O [drawing 255]	2.5
COCCOCc1cc(Cl)cc(C(=O)Nc2nc3ccc(C(F)(F)F)cc3s2)c1O [drawing 256]	2.5

Same assay, conditions: in words, compared to similar compounds of the present invention

Compound	mitochondrial uncoupling activity
O=C(Nc1nc2ccc(C(F)(F)F)cc2s1)c1cc(Cl)cc(CO)c1O [Compound 49 in U.S. Pat. No. 10,227,315, reference compound]	low
